Measured values taken from PubChem BioAssay (NCI).
Several values for one entry are separate records, joined by “and”; a condition that tells them apart may be missing. Equal values may be shown once.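 Dose response: 5 concentrations. Exposure: 48 h. Format: 96-well plates. Endpoint: linear interpolation; highest concentration if not reached. GI50 is the concentration that inhibits growth by half. At the TGI there is no net growth.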

Assays:
Assay in all cases: growth of human tumour cells (NCI), 48 h
786-0 renal = system: 786-0 renal
ACHN renal = system: ACHN renal
EKVX NSCLC = system: EKVX NSCLC
HS 578T breast = system: HS 578T breast
MOLT-4 leukemia = system: MOLT-4 leukemia
NCI/ADR-RES ovarian = system: NCI/ADR-RES ovarian
SF-268 CNS = system: SF-268 CNS
SK-MEL-2 melanoma = system: SK-MEL-2 melanoma
SK-MEL-28 melanoma = system: SK-MEL-28 melanoma
T-47D breast = system: T-47D breast

Row | Structure (SMILES) | TGI (786-0 renal) | TGI (ACHN renal) | TGI (EKVX NSCLC) | TGI (HS 578T breast) | TGI (MOLT-4 leukemia) | TGI (NCI/ADR-RES ovarian) | TGI (SF-268 CNS) | TGI (SK-MEL-2 melanoma) | TGI (SK-MEL-28 melanoma) | TGI (T-47D breast) | GI50 (786-0 renal) | GI50 (ACHN renal) | GI50 (HS 578T breast) | GI50 (MOLT-4 leukemia) | GI50 (NCI/ADR-RES ovarian) | GI50 (SF-268 CNS) | GI50 (SK-MEL-28 melanoma) | GI50 (T-47D breast) | GI50 (SK-MEL-2 melanoma) | GI50 (EKVX NSCLC)
1 | CSc1ncnc2c1ncn2C1OC(CO)C(O)OC1O (stereo not drawn) | 43.5 µM | > 100 µM | > 66.3 µM | > 100 µM | 30.1 µM | > 93.1 µM | > 100 µM | 18.9 µM | 69.5 µM | 17.7 µM | – | – | – | – | – | – | – | – | – | –
2 | CC[C@@]1(O)C(=O)OCc2c1cc1n(c2=O)Cc2c-1nc1cc3c(cc1c2C)OCO3 | 8.15 µM | 0.0601 µM | 0.818 µM | > 100 µM | – | > 100 µM | 0.0136 µM | 0.0271 µM | > 100 µM | – | < 0.0001 µM | < 0.0001 µM | 37.4 µM | < 0.0001 µM | < 0.0001 µM | 0.00108 µM | 0.0395 µM and 0.0765 µM | < 0.0001 µM | – | –
3 | NC1=NCCN1CC(=O)O | > 10000 µM | > 10000 µM | > 10000 µM | > 10000 µM | > 10000 µM | > 10000 µM | > 10000 µM | > 10000 µM | > 10000 µM | > 10000 µM | > 10000 µM | > 10000 µM | > 1000 µM | > 10000 µM | > 10000 µM | > 1000 µM | > 10000 µM | > 10000 µM | > 10000 µM | –
4 | COc1ccc(-c2c(-c3cc(OC)c(OC)c(OC)c3)noc2N)cc1 | – | 43.8 µM | > 100 µM | > 75.9 µM | 10.4 µM | 0.0226 µM | 16.3 µM | 81.4 µM | > 100 µM | > 100 µM | < 0.017 µM | < 0.0141 µM | < 0.0104 µM | 0.0312 µM | < 0.01 µM | < 0.0181 µM | 0.016 µM | 9.91 µM | 0.0188 µM | 1.03 µM
5 | C=C1C(=O)O[C@@H]2C1C[C@@H](O)C(=C)CC/C=C(\C)CCC[C@H](C)[C@H]2OC(C)=O (stereo partly drawn) | 16.3 µM | 3.85 µM | 25.6 µM | 27.7 µM | 5.9 µM | 14.2 µM | 30.5 µM | 31.1 µM | 23 µM | 42.3 µM | 4.84 µM | 1.69 µM | 10.3 µM | 2.54 µM | 3.38 µM | 11 µM | 4.78 µM | 6.46 µM | 12.9 µM | 12 µM
6 | CC(=O)[C@@]1(O)[C@H](C)C[C@H]2[C@@H]3C=C(C)C4=Cc5c(cnn5-c5ccccc5)C[C@]4(C)[C@H]3[C@@H](O)C[C@@]21C | 5.2 µM | 11.3 µM | 11.4 µM | 12.9 µM | 8.7 µM | 9.75 µM | 16.6 µM | 5.88 µM | 13 µM | 10.3 µM | 2.23 µM | 2.75 µM | 2.97 µM | 0.842 µM | 1.91 µM | 2.81 µM | 3.22 µM | 2.3 µM | 2.45 µM | 1.25 µM
7 | O=c1oc2ccc(-n3c(=O)c4ccccc4c4ccccc4c3=O)cc2c2ccccc12 | > 100 µM | > 100 µM | > 100 µM | 81 µM | > 100 µM | > 100 µM | > 100 µM | > 100 µM | > 100 µM | > 100 µM | – | – | – | – | – | – | – | – | – | –
8 | Cc1cc(Oc2ccc3nc(COc4ccc(CC5SC(=O)NC5=O)cc4)n(C)c3c2)cc(C)c1N (stereo not drawn) | > 100 µM | > 100 µM | > 100 µM | > 100 µM | 69.5 µM | > 100 µM | > 100 µM | > 69.7 µM | > 100 µM | > 66.9 µM | 49.9 µM | 48.9 µM | > 57.3 µM | 26.4 µM | 32.5 µM | 46.7 µM | 49.7 µM | 25.7 µM | > 49.4 µM | 39 µM
9 | Cc1cc(O)cc(C)c1/C=C/c1cncc(-c2nn[nH]n2)c1 | > 25 µM | > 25 µM | > 25 µM | > 25 µM | > 25 µM | > 25 µM | > 25 µM | > 25 µM | > 25 µM | > 25 µM | > 25 µM | > 25 µM | > 25 µM | > 25 µM | > 25 µM | > 25 µM | > 25 µM | > 25 µM | > 25 µM | > 25 µM
10 | CCc1cc2c(cc1N1CCC(N3CCOCC3)CC1)C(C)(C)c1[nH]c3cc(C#N)ccc3c1C2=O | 4.01 µM and 3.76 µM and 3.46 µM | 4.54 µM and 3.35 µM and 4.67 µM | 6.85 µM and > 10 µM | 4.88 µM and 5.56 µM and 4.22 µM | > 100 µM and 14.7 µM and > 10 µM | 3.81 µM and 6.34 µM and 6.47 µM | 4.02 µM and 3.97 µM and 5.47 µM | 9.13 µM and 9.77 µM and > 10 µM | 4.48 µM and 4.04 µM and 6.75 µM | 10.9 µM and 5.32 µM and > 10 µM | 1.87 µM and 1.71 µM | 1.92 µM and 1.54 µM and 1.41 µM | 1.21 µM and 1.51 µM and 0.53 µM | 1.57 µM and 0.973 µM and 1.38 µM | 1.01 µM and 1.39 µM and 1.59 µM | 1.57 µM and 1.54 µM and 1.92 µM | 1.95 µM and 1.87 µM and 2.32 µM | 2.2 µM and 1.94 µM and 2.18 µM | 2.62 µM and 2.86 µM and 5.46 µM | 1.56 µM and 2.04 µM
11 | C[C@H]1[C@H]2[C@H]3CC[C@@H]4[C@@]5(C)C/C(=C/c6cccnc6)C(=O)C(C)(C)[C@@H]5CC[C@@]4(C)[C@]3(C)CC[C@]23CO[C@]1(C)[C@@H](C(=O)/C=C\c1cccnc1)C3 | 1.95 µM | 4.81 µM | 6.4 µM | 7.4 µM | – | > 50 µM | 4.17 µM | 2.83 µM | 2.2 µM | > 50 µM | 0.905 µM | 1.49 µM | 1.44 µM | 0.524 µM | 1.54 µM | 1.27 µM | 1.02 µM | 1.98 µM | 1.21 µM | 1.56 µM
12 | CCN(CC)CCNc1cc(-c2cccc(OC(F)(F)F)c2)nc2ccc(N3CCCC3)cc12 | 3.19 µM and 3.23 µM | 2.9 µM and 3.28 µM and 3.93 µM | 5.82 µM and 6.24 µM and 8.91 µM | 3.52 µM and 4.04 µM and 13 µM | 4.7 µM and 4.92 µM and 6.08 µM | 3.19 µM and 3.3 µM and 4.53 µM | 4.18 µM and 3.96 µM and 5.89 µM | 3.3 µM and 3.49 µM and 3.61 µM | 3.16 µM and 3.38 µM and 3.17 µM | 4.04 µM and 4.32 µM | 1.66 µM and 1.67 µM and 1.59 µM | 1.53 µM and 1.68 µM and 1.92 µM | 1.59 µM and 1.87 µM and 2.78 µM | 1.84 µM and 1.92 µM and 2.08 µM | 1.65 µM and 1.72 µM and 2.18 µM | 1.98 µM and 1.92 µM and 2.23 µM | 1.66 µM and 1.9 µM and 1.74 µM | 1.78 µM and 2.12 µM | 1.61 µM and 1.87 µM and 1.9 µM | 2.14 µM and 2.29 µM and 2.49 µM
13 | O=C(NN=C1CCCCC1)c1[nH]c2ccc(F)cc2c1-c1ccccc1 | > 100 µM | > 100 µM | > 100 µM | > 100 µM | 61.9 µM | 86.1 µM | > 100 µM | > 100 µM | > 100 µM | > 100 µM | 44.2 µM | 42.6 µM | 48.3 µM | 22.5 µM | 23.7 µM | 18.9 µM | 27.3 µM | 46.8 µM | > 100 µM | 63.2 µM
